Laboratory results published in patent publication US20200069775A1, “BRAIN OSTEOCALCIN RECEPTOR AND COGNITIVE DISORDERS” (The Trustees of Columbia University in the City of New York, priority 2017, published 2020).
Where no end group is shown, it is not given here.

Columns and labels:
[1] = molecular target: T1, complex containing Gpr158 and the G[…]q subunit (Mus musculus, UniProt Q8C419); assay: Pull-down assay with biotinylated osteocalcin on solubilized hippocampal membranes; type: binding; conditions: solubilized membranes from hippocampal tissue
T1 construct: Pull-down assay using biotinylated-osteocalcin on solubilized Ocn−/− hippocampal membrane; from tissue; host or cells: hippocampi of Ocn-/- mice, membranes solubilized with n-octyl beta-D-thioglucopyranoside
T1 sequence (Q8C419 25-1200): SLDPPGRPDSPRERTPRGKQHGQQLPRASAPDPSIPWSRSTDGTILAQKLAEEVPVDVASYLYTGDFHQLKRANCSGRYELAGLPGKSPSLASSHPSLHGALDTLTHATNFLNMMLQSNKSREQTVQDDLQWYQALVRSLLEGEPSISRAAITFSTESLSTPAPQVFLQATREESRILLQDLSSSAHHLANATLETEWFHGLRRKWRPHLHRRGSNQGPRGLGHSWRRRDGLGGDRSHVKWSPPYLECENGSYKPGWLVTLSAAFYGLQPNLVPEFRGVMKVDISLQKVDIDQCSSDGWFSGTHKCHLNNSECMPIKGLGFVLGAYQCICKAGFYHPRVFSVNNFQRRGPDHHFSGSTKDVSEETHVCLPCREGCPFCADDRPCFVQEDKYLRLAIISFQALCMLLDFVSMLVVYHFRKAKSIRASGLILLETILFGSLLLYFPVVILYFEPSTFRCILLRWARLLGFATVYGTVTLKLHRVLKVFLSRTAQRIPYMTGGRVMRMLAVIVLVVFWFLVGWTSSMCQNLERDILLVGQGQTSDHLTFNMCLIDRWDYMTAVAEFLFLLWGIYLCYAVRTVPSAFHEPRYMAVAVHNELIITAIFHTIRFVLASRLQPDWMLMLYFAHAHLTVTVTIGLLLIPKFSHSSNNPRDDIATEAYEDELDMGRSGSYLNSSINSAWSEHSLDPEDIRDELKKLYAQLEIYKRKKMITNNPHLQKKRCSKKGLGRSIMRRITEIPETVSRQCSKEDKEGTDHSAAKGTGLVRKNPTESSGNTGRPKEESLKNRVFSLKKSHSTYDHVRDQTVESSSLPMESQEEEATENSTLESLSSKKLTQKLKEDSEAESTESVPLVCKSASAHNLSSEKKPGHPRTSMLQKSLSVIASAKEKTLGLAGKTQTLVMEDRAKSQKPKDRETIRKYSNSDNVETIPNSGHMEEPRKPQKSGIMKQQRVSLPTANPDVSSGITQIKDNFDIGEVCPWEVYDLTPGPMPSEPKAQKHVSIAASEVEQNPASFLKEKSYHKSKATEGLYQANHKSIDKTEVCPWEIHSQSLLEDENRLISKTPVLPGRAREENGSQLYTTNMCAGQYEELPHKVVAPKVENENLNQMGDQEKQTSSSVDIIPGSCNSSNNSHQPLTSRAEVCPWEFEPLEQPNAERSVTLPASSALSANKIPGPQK
T1 sequence (P21279 1-359 partner): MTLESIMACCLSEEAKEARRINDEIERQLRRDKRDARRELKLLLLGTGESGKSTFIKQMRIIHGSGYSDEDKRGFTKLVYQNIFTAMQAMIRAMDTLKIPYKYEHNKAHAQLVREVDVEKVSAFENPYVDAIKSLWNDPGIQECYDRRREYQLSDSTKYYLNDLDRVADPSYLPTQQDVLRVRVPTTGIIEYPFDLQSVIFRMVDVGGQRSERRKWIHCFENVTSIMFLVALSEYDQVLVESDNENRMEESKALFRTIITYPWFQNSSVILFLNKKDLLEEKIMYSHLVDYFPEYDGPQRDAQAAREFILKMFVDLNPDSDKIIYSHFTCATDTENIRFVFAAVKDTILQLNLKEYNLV
Description: For Western blotting, frozen hippocampi from adult mice were lysed and homogenized in 250 µl tissue lysis buffer (25 mM Tris HCl 7.5; 100 mM NaF; 10 mM Na4P2O7; 10 mmM EDTA; 1% NP 40). Proteins were transferred to nitrocellulose membranes, and blocked with TBST-5% BSA for 1 hour. Antibodies: anti-Runx2 M-70 sc-10758, Santa Cruz, anti-BDNF: sc-546, Santa Cruz; anti-tubulin: T6199, Sigma; anti-Gpr158 ABIN1535721, Assay Biotechnology; anti-Na,K ATPase 3010S Cell Signaling , were diluted (1:1000) in TBST-5% BSA and incubated overnight at 4° C. HRP-coupled secondary antibodies and ECL were used to visualize the signal. Western blot bands were quantified using ImageJ software. cAMP accumulation was measured in primary hippocampal neurons by using cAMP Parameter Assay Kit (R&D systems) and performed in primary hippocampal neurons (DIV15) following manufacturer instructions. For IP1 accumulation was determined in primary hippocampal neurons (DIV15) by using IP-One ELISA assay kit (Cisbio) following manufacturer instructions. […]
Streptavidin were added for 30 minutes at room temperature followed by PBS washes. […] For hormonal measurement; circulating levels of the carboxylated, undercarboxylated or uncarboxylated forms of osteocalcin were measured by ELISA. CTX content in serum (ng/ml) were measured with specific ELISAs (RatLaps™ (CTX-I) EIA (Immunodiagnosticsystems).

[2] = system: neurons in WT brain sections (ventral tegmental area, substantia nigrae, raphe nuclei); assay: Binding of biotinylated osteocalcin to brain sections (anti-biotin immunofluorescence); parameters: species or system mouse
Description: Brains from 8-week-old mice were snap-frozen in isopentane, and […] thick sections were prepared and desiccated overnight at 4° C. under vacuum. On the following day, sections were rehydrated in ice-cold binding buffer (50 mM TrisHCl [pH 7.4], 10 mM MgCl2, 0.1 mM EDTA and 0.1% BSA) for 15 min and incubated for 1 hr in the presence of biotinylated osteocalcin (3, 30, 300, 3000 ng/ml) or biotynylated recombinant GST as a control (10 μg/ml). After washing in harvesting buffer (50 mM Tris-HCl, pH 7.4), samples were fixed in 4% paraformaldehyde for 15 min, washed in PBS and incubated with goat anti-biotin antibody (1:1000, Vector laboratories) over night at 4° C. Signal was visualized by incubating with anti-goat IgG Cy-3 using Leica DM 5000B microscope (Leica). The binding assays were perform on adjacent sections for each conditions tested. […] This was tested by incubating sections of adult or embryonic (E18.5) WT brains with biotinylated undercarboxylated osteocalcin or GST-biotin alone (30 μg/ml), followed by immunofluorescence analysis using an anti-biotin antibody.

- binding in the brainstem ([2]; WT brain sections): bound to neurons of the raphe nuclei
Substance: biotinylated osteocalcin: biotin-labelled undercarboxylated osteocalcin used for binding and pull-down assays (YLGASVPSPDPLEPTREQCELNPACDELSDQYGLKTAYKRIYGITI; ends and bridges not checked; also: biotin label, attachment site not given here)
- binding in pull-down assay [1]: could bind a complex containing Gpr158 and the G[…]q subunit
- binding in the midbrain ([2]; WT brain sections): bound to the ventral tegmental area and the substantia nigrae
- binding to neuronal populations in brain sections ([2]; adult or embryonic (E18.5) WT brain sections): bound to several neuronal populations in the forebrain, midbrain, and brainstem
- specificity of binding in midbrain and brainstem (competition) ([2]; excess of unlabeled osteocalcin or of GST): specific since it was chased away by an excess of unlabeled osteocalcin but not by an excess of GST
